Assay results reported in patent publication US20120190613A1, “ECHINOCANDIN DERIVATIVES” (priority 2009, published 2012).
In brackets after ≈: the same amount, converted by molar mass. Starred links: 1 amine or outer side, 2 acyl side, 3 side chain; linkers in the order of their positions; H or OH if unused. Positions of bridges follow the written chain, without caps; N, C: chain ends. Non-standard residues stand in square brackets, D forms with d. Residues, ends and D or L forms follow the SMILES beside them. *: point of attachment. Orn(4R-OH,5R-OH) = O=C([C@H](C[C@@H](O)[C@@H](O)N[*:3])N[*:1])[*:2]; Tetradecanoyl(10R,12S-Me2) = CC[C@H](C)C[C@H](C)CCCCCCCCC(=O)*; hTyr(3S-OH,4S-OH) = N[C@H](C(=O)O)[C@H](O)[C@@H](O)c1ccc(O)cc1; Gln(3R-OH) = NC(=O)C[C@@H](O)[C@H](N)C(=O)O; Pro(3S-OH) = O=C(O)[C@H]1NCC[C@@H]1O; Hyp = O=C(O)[C@@H]1C[C@@H](O)CN1

Key:
Type in all cases: cell-based
[1] = system: A. flavus 626 ATCC 64025; experiment: MIC by broth microdilution against A. flavus; details: 48 hr, growth reduction of 50%
Method: (§1) MIC values (μg/mL) of echinocandin class compounds of the invention against various Candida and Aspergillus species were obtained as follows. Test organisms were obtained from the American Type Culture Collection (Manassas, Va.). The isolates were maintained at −80 ° C., then thawed and sub-cultured one day prior to testing (seven days for Aspergillus strains).
(§2) The mouse serum was heat-inactivated for 30 minutes at 56° C., and filtered through a 0.2 μm low protein binding filter unit prior to use.
(§3) MIC values were determined using broth microdilution. The wells of the daughter plates ultimately contained 180 μL of RPMI-1640 medium with and without mouse serum, 10 μL of drug solution, and 10 μL of yeast or fungal inoculum.
(§4) Prior to susceptibility testing, fungal isolates were removed from frozen storage, thawed at room temperature, and subcultured to Potato Dextrose Agar. The Candida strains were incubated overnight at 35° C. and the Aspergillus strains for 7 days at 25° C. Yeast colonies were inoculated into sterile saline and adjusted to the turbidity of a 0.5 McFarland standard. Inoculums from Aspergillus strains were prepared by washing the surface of an agar slant with 1 mL of sterile saline containing 0.05% of Tween 20. The resulting colloidial suspensions were adjusted to an optical density of 0.09 to 0.11 at λ 625 nm.
(§5) Both the yeast and filamentous fungus suspensions were further diluted 1:100 in RPMI-1640 medium and dispensed into sterile reservoirs and used to inoculate the daughter plates. 10 μL of standardized inoculum was delivered into each well. This yielded a final cell concentration in the daughter plates of approximately 2.5×10^3 colony-forming units/mL. Plates were incubated at 35° C. for approximately 48 hr.
(§6) Following incubation, microplates were viewed from the bottom using a plate viewer.

[2] = system: C. parapsilosis 630 ATCC 90018; experiment: MIC by broth microdilution against C. parapsilosis; details: 48 hr
Method: as §1, §2, §3, §4, §5, §6

[3] = system: C. albicans 104 ATCC 90028; experiment: MIC by broth microdilution against C. albicans; details: 48 hr
Method: as §1, §2, §3, §4, §5, §6

| Structure (SMILES) | MIC ([1]; 0% mouse serum) | MIC ([1]; 50% mouse serum) | MIC ([2]; 0% mouse serum) | MIC ([2]; 50% mouse serum) | MIC ([3]; 0% mouse serum) | MIC ([3]; 50% mouse serum) |
| --- | --- | --- | --- | --- | --- | --- |
| CCC(C)CC(C)CCCCCCCCC(=O)NC1CC(O)C(OCCCCCCOCCOCCOCCOCCOCCOCCOCCOC)NC(=O)C2C(O)CCN2C(=O)C(C(O)CC(N)=O)NC(=O)C(C(O)C(O)c2ccc(O)cc2)NC(=O)C2CC(O)CN2C(=O)C(C(C)O)NC1=O (stereo not drawn) [Compound 10] | 4 µg/mL (≈ 2.69 µM) | 16 µg/mL (≈ 10.8 µM) | >16 µg/mL | >16 µg/mL | >16 µg/mL | >16 µg/mL |
| CC[C@H](C)C[C@H](C)CCCCCCCCC(=O)N[C@H]1C[C@@H](O)[C@@H](O)NC(=O)[C@@H]2[C@@H](O)CCN2C(=O)[C@H]([C@H](O)CC(N)=O)NC(=O)[C@H]([C@H](O)[C@@H](O)c2ccc(O)cc2)NC(=O)[C@@H]2C[C@@H](O)CN2C(=O)[C@H]([C@@H](C)O)NC1=O [Pneumocandin B0, pneumocandin B0, reference compound] ({Tetradecanoyl(10R,12S-Me2)}-[Orn(4R-OH,5R-OH)]T[Hyp][hTyr(3S-OH,4S-OH)][Gln(3R-OH)][Pro(3S-OH)]; lactam 1-C) | 1 µg/mL (≈ 0.939 µM) | 0.25 µg/mL (≈ 0.235 µM) | 8 µg/mL (≈ 7.51 µM) | >16 µg/mL | 0.25 µg/mL (≈ 0.235 µM) | 4 µg/mL (≈ 3.76 µM) |
